According to USRE47193E1, “Selectively substituted quinoline compounds” (EISAI R&D MANAGEMENT CO., LTD., priority 2013, dated 2019):
Where two headings read alike, the source gives them in different places.

Columns and labels:
[1] = tested on: Human TLR7/8; assay: Human PBMC cell-based assay, TLR7/8 stimulus (RNA-Ig), cytokine ELISA
Procedure, shortened: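 The agonist was RNA-Ig, a U1 snRNA-derived 26-mer RNA (2.5 μM) complexed with RNA-cross-reacting anti-ssDNA mAb (1:25 or 1 ug/ml), added after 30 min compound pre-incubation (0.1% DMSO). Density-gradient PBMC from healthy donors, 2×10^5/well, were stimulated 20 h at 37 °C; cytokines quantified by ELISA.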

[2] = molecular target: T1, mouse TLR7 (Mus musculus, UniProt P58681); assay: Short-term in vivo (STIV) assay: oral dosing, R848 s.c., plasma IL-6; set-up: female BALB/c mice (Jackson Labs, Bar Harbor, Me.) were dosed by oral gavage; tissue Jackson Labs; host or cells: living female BALB/c mice; plasma IL-6 after s.c. R848
T1 sequence (P58681 27-1050): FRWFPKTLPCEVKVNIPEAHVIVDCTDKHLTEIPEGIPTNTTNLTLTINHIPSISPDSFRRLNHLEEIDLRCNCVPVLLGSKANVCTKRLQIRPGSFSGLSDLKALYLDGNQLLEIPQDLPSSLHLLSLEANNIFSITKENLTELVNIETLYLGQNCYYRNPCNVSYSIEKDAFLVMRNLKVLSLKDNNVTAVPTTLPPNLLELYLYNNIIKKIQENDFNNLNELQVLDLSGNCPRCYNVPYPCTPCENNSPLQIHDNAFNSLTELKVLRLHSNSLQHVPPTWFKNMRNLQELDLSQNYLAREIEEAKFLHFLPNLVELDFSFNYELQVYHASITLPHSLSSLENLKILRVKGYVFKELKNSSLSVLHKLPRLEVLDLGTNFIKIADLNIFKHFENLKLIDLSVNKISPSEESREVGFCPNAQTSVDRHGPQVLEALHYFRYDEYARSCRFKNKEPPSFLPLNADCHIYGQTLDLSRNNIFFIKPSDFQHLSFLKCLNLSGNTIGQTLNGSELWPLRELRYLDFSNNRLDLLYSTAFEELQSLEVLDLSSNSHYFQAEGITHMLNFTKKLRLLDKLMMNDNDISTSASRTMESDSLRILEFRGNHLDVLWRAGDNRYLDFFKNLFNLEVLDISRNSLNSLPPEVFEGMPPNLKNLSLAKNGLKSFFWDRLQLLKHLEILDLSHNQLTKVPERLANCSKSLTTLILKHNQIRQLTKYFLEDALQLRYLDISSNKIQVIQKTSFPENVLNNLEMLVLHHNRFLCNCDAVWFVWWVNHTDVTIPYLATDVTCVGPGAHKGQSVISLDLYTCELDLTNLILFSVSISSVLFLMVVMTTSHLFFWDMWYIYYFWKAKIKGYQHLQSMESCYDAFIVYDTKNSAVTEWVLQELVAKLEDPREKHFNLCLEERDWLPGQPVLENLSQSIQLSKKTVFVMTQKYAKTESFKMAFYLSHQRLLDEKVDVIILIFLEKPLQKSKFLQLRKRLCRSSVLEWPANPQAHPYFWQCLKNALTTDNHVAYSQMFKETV
Description: Figure Legend: Female BALB/c mice were dosed by oral gavage with Vehicle alone (0.5% aqueous methyl-cellulose) or compound formulated in Vehicle at 33 mg/kg, 100 mg/kg or 300 mg/kg. […] (FIG. 1A).
Short-term in vivo (STIV) assay: To assess compound potency in vivo against mouse TLR7, a short-term in vivo (STIV) assay was utilized. Briefly, mice were orally dosed with compounds and at various time points afterwards were injected subcutaneously with agonist R848 to stimulate TLR7. The plasma IL-6 level following R848 stimulation was then measured by ELISA to assess compound potency and duration-of-action.
Short-term in vivo (STIV) assay. Six to eight week old female BALB/c mice (Jackson Labs, Bar Harbor, Me.) were dosed by oral gavage in 200 ul volume with antagonist compounds formulated in 0.5% aqueous methyl-cellulose (Sigma, St. Louis, Mo.). At various time points afterwards, mice were injected subcutaneously (s.c.) in 100 ul volume with 15 ug R848 (Resiquimod; GLSynthesis, Worcester, Mass.) to stimulate TLR7.

[3] = primary human PBMC assay, TLR7/8 potency; ligand not given; read-out: Human PBMCs IC50

SMILES	IC50 [1, 3] [nM]	% Suppression vs. Vehicle ([2]; 6 h, 33 mg/kg) [%]	% Suppression vs. Vehicle ([2]; 13 h, 33 mg/kg) [%]	% Suppression vs. Vehicle ([2]; 13 h, 100 mg/kg) [%]	% Suppression vs. Vehicle ([2]; 13 h, 300 mg/kg) [%]	% Suppression vs. Vehicle ([2]; 24 h, 33 mg/kg) [%]	% Suppression vs. Vehicle ([2]; 24 h, 100 mg/kg) [%]	% Suppression vs. Vehicle ([2]; 24 h, 300 mg/kg) [%]	% Suppression vs. Vehicle ([2]; 6 h, 100 mg/kg) [%]	also measured
CC[C@H]1CN(C[C@H]2CN(c3ccc(C#N)c4ncccc34)C[C@@H](C)O2)CCN1C [ER-890964]	1									% Suppression vs. Vehicle ([2]; 3 h, 33 mg/kg): 96%; % Suppression vs. Vehicle ([2]; 19 h, 33 mg/kg): 0%
CCNC(=O)C1CN(c2ccc(C#N)c3ncccc23)CC(C)O1 (stereo not shown) [ER-894550]	97	98	72	97	99	48	71	99		
CC1CN(c2ccc(C#N)c3ncccc23)CC(C(=O)NC2CCCNC2)O1 (stereo not shown) [ER-897968]	1	81	3	35	85	0	8	80		
CC1CN(c2ccc(C#N)c3ncccc23)CC(C(=O)NCC2CCCN2)O1 (stereo not shown) [ER-897969]	7	0	29	54	71	0	4	29		
CC1CN(c2ccc(C#N)c3ncccc23)CC(C(=O)NCC(C)(C)N(C)C)O1 (stereo not shown) [ER-898566]	11	100	73	86	98	0	30	100	99	
CC1CN(c2ccc(C#N)c3ncccc23)CC(C(=O)NCC2CNCCO2)O1 (stereo not shown) [ER-898694]	2	93	2	36	53	0	0	35		
CC1CN(c2ccc(C#N)c3ncccc23)CC(C(=O)NC2CCNCC2)O1 (stereo not shown) [ER-898946]	2	61	2	16	55	28	0	34		
CC1CN(c2ccc(C#N)c3ncccc23)CC(C(=O)N2CC3(CCNC3)C2)O1 (stereo not shown) [ER-899017]	4	34	0	0	10		0	0		
CNCC1CN(C(=O)[C@H]2CN(c3ccc(C#N)c4ncccc34)C[C@@H](C)O2)C1 [ER-899018]	9			12					73	
CC1CN(c2ccc(C#N)c3ncccc23)CC(C(=O)NC2CCOCC2)O1 (stereo not shown) [ER-899122]	80		90	100		15	89			% Suppression vs. Vehicle ([2]; 6 h, 11 mg/kg): 98%; % Suppression vs. Vehicle ([2]; 13 h, 11 mg/kg): 37%; % Suppression vs. Vehicle ([2]; 24 h, 11 mg/kg): 0%
CC1CN(c2ccc(C#N)c3ncccc23)CC(C(=O)N2CCC3(CCNCC3)CC2)O1 (stereo not shown) [ER-899193]	9			52					43	
CC1CN(c2ccc(C#N)c3ncccc23)CC(C(=O)Nc2cnn(C3CCNCC3)c2)O1 (stereo not shown) [ER-899285]	7			0					75	
C[C@@H]1CN(c2ccc(C#N)c3ncccc23)C[C@H](C(=O)N[C@@H]2CCCN(C)C2)O1 [ER-899337]	2			30					99	
CC1CN(c2ccc(C#N)c3ncccc23)CC(C(=O)NC2CCCNCC2)O1 (stereo not shown) [ER-899417]	1			0					71	
CC1CN(c2ccc(C#N)c3ncccc23)CC(C(=O)NC2C3CNCC32)O1 (stereo not shown) [ER-899418]	5			10					19	
CC1CN(c2ccc(C#N)c3ncccc23)CC(C(=O)NC2CNCC2F)O1 (stereo not shown) [ER-899476]				65					99	IC50 ([1]; read-out: Human PBMCs IC50; primary human PBMC assay, TLR7/8 potency; ligand not given): 3 nM
C[C@@H]1CN(c2ccc(C#N)c3ncccc23)C[C@H](C(=O)NC2CCN(CC(N)=O)CC2)O1 [ER-899481]	8			5					54	
C[C@@H]1CN(c2ccc(C#N)c3ncccc23)C[C@H](C(=O)N(C)[C@@H]2CCCNC2)O1 [ER-899616]	54			27					79	
C[C@@H]1CN(c2ccc(C#N)c3ncccc23)C[C@H](C(=O)N(C)[C@H]2CCCNC2)O1 [ER-899619]	33			35					79	
CC1CN(c2ccc(C#N)c3ncccc23)CC(C(=O)NC2CCCN(C)C2)O1 (stereo not shown) [ER-899688]	11			96					10	
C[C@@H]1CN(c2ccc(C#N)c3ncccc23)C[C@H](C(=O)N[C@@H]2CNC[C@@H]2F)O1.Cl [ER-899745]	4			5					100	
